Calls of active or inactive are those of the source. The calls are words filed in the database; no cut-off is given here. Square brackets hold non-standard residues; d marks the D form. Peptide text beside a SMILES is read from it. * marks the point of attachment. d(hPhe) = N[C@H](CCc1ccccc1)C(=O)O; Bn = c1ccc(C*)cc1; NHOH = ON*
Experiments:
[1] = target: Matrix metalloproteinase-9 (Homo sapiens) (UniProt P14780); test: Inhibition of MMP9 (unknown origin) at 1 uM
[2] = target: Stromelysin-1 (Homo sapiens) (UniProt P08254); test: Inhibition of recombinant human C-terminal DYKDDDDK tagged MMP3 expressed in mammalian expression system at 55 nM relative to control
[3] = target: T1, Macrophage metalloelastase (Homo sapiens, UniProt P39900); test: Binding affinity to recombinant human MMP12 catalytic domain (Gly106 to […] residues) expressed in Escherichia coli BL21 codon plus by 2D [15N,1H] HMQC spectra analysis
Target sequence in this assay (P39900 whole entry, the tested form may be a part): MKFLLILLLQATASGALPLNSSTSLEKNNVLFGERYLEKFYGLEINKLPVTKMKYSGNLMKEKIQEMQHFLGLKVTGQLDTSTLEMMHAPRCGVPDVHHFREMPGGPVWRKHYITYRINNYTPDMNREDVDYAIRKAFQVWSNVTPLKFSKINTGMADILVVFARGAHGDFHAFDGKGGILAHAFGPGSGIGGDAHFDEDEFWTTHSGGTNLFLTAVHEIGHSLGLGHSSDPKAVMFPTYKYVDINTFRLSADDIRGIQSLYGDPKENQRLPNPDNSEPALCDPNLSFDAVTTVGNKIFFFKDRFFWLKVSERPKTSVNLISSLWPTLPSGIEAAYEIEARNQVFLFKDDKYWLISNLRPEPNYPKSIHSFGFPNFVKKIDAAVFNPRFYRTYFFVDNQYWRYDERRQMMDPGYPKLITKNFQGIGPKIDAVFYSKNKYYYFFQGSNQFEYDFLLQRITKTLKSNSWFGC

[4] = target: T1, Macrophage metalloelastase; test: Inhibition of recombinant human C-terminal DYKDDDDK tagged MMP12 expressed in mammalian expression system at 55 to 100 nM
Target sequence in this assay (P39900 106-470 limits assumed): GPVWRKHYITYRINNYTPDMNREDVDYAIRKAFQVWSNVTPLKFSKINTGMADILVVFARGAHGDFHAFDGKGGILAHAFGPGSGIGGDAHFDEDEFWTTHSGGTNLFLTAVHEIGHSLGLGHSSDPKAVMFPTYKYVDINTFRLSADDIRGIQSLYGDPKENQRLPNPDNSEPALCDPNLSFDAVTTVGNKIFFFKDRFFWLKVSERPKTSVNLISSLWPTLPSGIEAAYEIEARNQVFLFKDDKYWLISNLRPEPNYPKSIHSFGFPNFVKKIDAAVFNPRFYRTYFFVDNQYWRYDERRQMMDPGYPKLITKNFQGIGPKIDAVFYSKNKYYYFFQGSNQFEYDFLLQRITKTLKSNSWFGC

[5] = target: T2, Interstitial collagenase (Homo sapiens) (UniProt P03956); test: Inhibition of MMP1 (unknown origin) at 1 uM
T2 sequence (whole entry): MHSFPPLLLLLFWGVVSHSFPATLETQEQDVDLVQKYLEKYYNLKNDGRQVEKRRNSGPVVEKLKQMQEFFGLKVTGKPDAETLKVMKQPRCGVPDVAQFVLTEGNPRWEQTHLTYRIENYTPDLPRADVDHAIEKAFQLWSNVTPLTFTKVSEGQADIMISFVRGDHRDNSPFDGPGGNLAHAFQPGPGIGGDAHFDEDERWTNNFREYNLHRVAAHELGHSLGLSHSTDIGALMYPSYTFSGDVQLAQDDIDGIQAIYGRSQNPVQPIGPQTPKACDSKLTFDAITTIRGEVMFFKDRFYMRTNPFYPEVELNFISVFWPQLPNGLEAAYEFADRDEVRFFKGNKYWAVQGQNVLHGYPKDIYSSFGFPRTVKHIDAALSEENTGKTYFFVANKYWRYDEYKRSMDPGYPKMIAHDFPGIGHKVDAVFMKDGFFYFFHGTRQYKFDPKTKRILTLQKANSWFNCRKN

[6] = target: Matrix metalloproteinase-14 (Homo sapiens) (UniProt P50281); test: Inhibition of MMP14 (unknown origin) at 1 uM
[7] = target: T1, Macrophage metalloelastase; test: Inhibition of recombinant human MMP12 catalytic domain (Gly106 to […] residues) expressed in Escherichia coli BL21 codon plus using Mca-Pro-Leu-Gly-Leu-Dpa-Ala-Arg-NH2 as substrate by fluorescence assay
Target sequence in this assay (P39900 whole entry, the tested form may be a part): as the sequence (P39900 whole entry, the tested form may be a part) above

[8] = target: Stromelysin-1 (Homo sapiens) (UniProt P08254); test: Inhibition of recombinant human C-terminal DYKDDDDK tagged MMP3 expressed in mammalian expression system at 1 uM relative to control
[9] = target: T1, Macrophage metalloelastase; test: Binding affinity to recombinant human MMP12 catalytic domain (Gly106 to […] residues) expressed in Escherichia coli BL21 codon plus by 1D 1H aliphatic NMR spectra analysis
Target sequence in this assay (P39900 whole entry, the tested form may be a part): as above

[10] = target: T1, Macrophage metalloelastase; conditions: 1 uM
Target sequence in this assay (P39900 106-470 limits assumed): as the sequence (P39900 106-470 limits assumed) above

Stromelysin-1 (Homo sapiens), sequence (P08254 100-477 limits assumed): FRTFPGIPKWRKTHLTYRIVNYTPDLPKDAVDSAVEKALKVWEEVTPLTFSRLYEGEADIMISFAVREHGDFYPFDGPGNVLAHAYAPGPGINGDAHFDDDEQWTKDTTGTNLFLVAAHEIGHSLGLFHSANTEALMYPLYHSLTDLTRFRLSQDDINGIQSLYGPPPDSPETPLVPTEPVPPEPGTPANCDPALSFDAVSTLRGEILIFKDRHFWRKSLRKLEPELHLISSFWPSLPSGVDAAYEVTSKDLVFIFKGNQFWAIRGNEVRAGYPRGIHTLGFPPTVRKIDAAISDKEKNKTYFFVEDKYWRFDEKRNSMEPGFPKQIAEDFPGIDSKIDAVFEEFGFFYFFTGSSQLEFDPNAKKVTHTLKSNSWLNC
Matrix metalloproteinase-9 (Homo sapiens), sequence (P14780 whole entry): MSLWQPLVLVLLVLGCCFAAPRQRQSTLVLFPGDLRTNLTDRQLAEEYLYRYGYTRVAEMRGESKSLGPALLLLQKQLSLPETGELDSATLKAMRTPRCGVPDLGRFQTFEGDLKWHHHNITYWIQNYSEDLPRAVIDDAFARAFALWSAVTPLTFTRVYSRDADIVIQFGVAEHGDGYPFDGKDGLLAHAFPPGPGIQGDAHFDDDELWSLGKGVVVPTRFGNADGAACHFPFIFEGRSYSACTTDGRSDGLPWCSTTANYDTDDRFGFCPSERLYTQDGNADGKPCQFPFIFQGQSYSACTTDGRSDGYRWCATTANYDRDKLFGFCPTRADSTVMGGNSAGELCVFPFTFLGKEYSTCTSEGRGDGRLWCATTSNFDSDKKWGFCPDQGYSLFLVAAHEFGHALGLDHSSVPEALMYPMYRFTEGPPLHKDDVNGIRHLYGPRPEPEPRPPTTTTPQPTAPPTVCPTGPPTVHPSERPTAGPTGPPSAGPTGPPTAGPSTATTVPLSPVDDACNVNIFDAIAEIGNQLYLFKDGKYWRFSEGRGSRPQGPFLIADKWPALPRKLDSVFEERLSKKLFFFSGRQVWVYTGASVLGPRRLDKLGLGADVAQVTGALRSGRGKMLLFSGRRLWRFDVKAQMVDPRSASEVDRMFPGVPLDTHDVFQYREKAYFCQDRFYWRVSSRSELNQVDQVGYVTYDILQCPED

Row | SMILES | inhibition [1] | inhibition [2] [%] | Kd [3] [nM] | inhibition [4] | inhibition [5] | inhibition [6] | IC50 [7] [nM] | inhibition [8] | Kd [9] [nM] | inhibition [10]
1 | CC(=O)N[C@@H](COCc1ccccc1)C(=O)N[C@H](CCc1ccccc1)C(=O)N[C@H](Cc1ccccc1)C(=O)NO (Ac-Ser(Bn)-[d(hPhe)]-[dF]-{NHOH}) | Active | 19 | < 50 | Active | Active | Active | 54.7 | 78% | < 50 | 
2 | CNC(=O)[C@H](Cc1c[nH]c2ccccc12)NC(=O)[C@@H](CC(=O)NO)CC(C)C [ILOMASTAT] | Active |  |  |  | Active | Active | 5.2 | Active |  | Active

Source: ChEMBL document CHEMBL4138305, “HTS by NMR for the Identification of Potent and Selective Inhibitors of Metalloenzymes” (ACS Med Chem Lett, 2018)
